Assay results as given in PubChem BioAssay AID1769 (NMMLSC, 2009).

Target: glutathione S-transferase (Schistosoma japonicum GST tag binding GSH beads)
Experiment: GST–glutathione bead interaction interference profiling – biochemical, multiplex beads, flow cytometry, profiling panel (AID 1769);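 further: target is a GST and green fluorescent protein fusion captured on glutathione beads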
Details: flow cytometry fluorescence

Structure (SMILES)	EC50 [µM]
COc1ccc2nc(C)cc(SCC(=O)N/N=C/c3ccc(O)c(O)c3)c2c1	15.7
Cc1cc2nc3c(=O)n(C4CCCCC4)c(=O)[nH]c3nc2cc1N	6.99
COc1cc(/C=C2/SC(=Nc3ccc(O)cc3)NC2=O)cc(OC)c1O	0.974
O=c1nc2c(O)cccn2c2c1c(=O)[nH]c1ccccc12	2.6
COc1ccc(NC(=O)c2cc3nc(-c4ccccc4)cc(C)n3n2)cc1OC	2.85
Cc1ccc(/C=N/N(C)C2=NS(=O)(=O)c3ccccc32)o1	7.42
O=c1[nH]c(N/N=C/c2ccc(O)cc2)nc2ccccc12	7.68
CCN1/C(=C/C=C/c2oc3ccc4ccccc4c3[n+]2CC)Oc2ccc3ccccc3c21	0.223
Cc1cc(-c2nnc3n2N=C(c2ccc(-c4ccccc4)cc2)CS3)n[nH]1	6.8
Oc1ccc2ccccc2c1/C=N/Nc1nnc(-c2ncc[nH]2)c2ccccc12	1.96
COc1cc(/C=N/Nc2ncnc3sc4c(c23)CCC4)ccc1O	14.4
O=C(Nc1cccc(Cl)c1)Nc1ccnc(-c2cccnc2)n1	0.499
COc1cc2ccccc2cc1C(=O)NC(=S)Nc1cccc(C(=O)O)c1	9.3
Cn1cccc1/C=C1\SC(=S)N(NC(=O)c2ccccc2Cl)C1=O	51.7
CCNC(=S)N=Nc1c(O)[nH]c2ccc([N+](=O)[O-])cc12	1.93
CCOc1ccc2c(c1)c(N=NC(=N)N)c(O)n2C	25.6
O=C(O)c1cc(C(=O)O)cc(-c2ccc(/C=c3/sc4nc5ccccc5n4c3=O)o2)c1	11.9
O=S1(=O)N=C(N(CCO)/N=C/c2ccncc2)c2ccccc21	36.1
CSc1nc(Cc2ccccc2)cc(=O)[nH]1	31.3
O=c1[nH]c(=O)c2nnc(N/N=C\c3ccc(O)cc3)nc2[nH]1	3.79
Cc1sc2nc3c(SC(C)C(=O)O)cc(C(=O)c4ccccc4O)cn3c(=O)c2c1C (stereo unspecified)	92.7
CCC(C)N1C(=O)/C(=C/c2c(NCCCOC(C)C)nc3c(C)cccn3c2=O)SC1=S (stereo unspecified)	0.201
COc1ccccc1CNC(=O)c1c(N)n(CCCN2CCOCC2)c2nc3ccccc3nc12	4.43

Structure (SMILES)	EC50 [µM]
CCOc1ccc(CCNc2ccc3nnc(-c4ccccc4)n3n2)cc1OCC	2.29
O=c1c2c(-c3ccccc3)csc2nc2c3ccccc3c(NCCN3CCOCC3)nn12	1.84
CCOc1cccc(Nc2cc3n(c(=O)n2)CCc2cc(OC)c(OC)cc2-3)c1	64.5
O=C(N/N=C(\c1ccccc1)c1ccccn1)c1cccc([N+](=O)[O-])c1	38.1
Cc1cc(C)cc(N2C(=O)NC(=O)/C(=C\C=C\c3ccco3)C2=O)c1	4.38
Oc1ccc(C2=Nn3c(nnc3-c3ccco3)SC2)cc1O	1.29
O=C(N/N=C/c1ccco1)c1ccc(C(=O)N/N=C/c2ccco2)o1	19.4
Cc1cc2[nH]c3c(c[n+](C)c4ccccc34)c2cc1C	9.45
COc1ccc2c(C)nc(N/C(N)=N/S(=O)(=O)c3ccc(C)cc3)nc2c1	7.51
O=C(Nc1cccc(-c2nnc(-c3ccco3)o2)c1)c1ccccc1	40.8
CN1CCN(S(=O)(=O)c2cccc(C(=O)Nc3sc4c(c3C(N)=O)CCCC4)c2)CC1	19.8
COc1ccc(OC)c(Nc2nc(-c3sc(N)nc3C)cs2)c1	26.9
COc1cc2[nH]c(=S)nc(NC3CCCCCC3)c2cc1OC	1.32
COc1ccc(/C=N/NC(=O)Nc2cccc3nsnc23)cc1OC	0.682
CCOC(=O)c1cc(C(=O)OCC)c(=O)[nH]c1N1CCCC1	35.9
N#Cc1c2nc3ccccc3nc2n2cc(NC(=O)c3ccc(F)cc3)ccc12	0.95
O=c1c2ccccc2nc2c3ccccc3c(NCc3ccccn3)nn12	3.76
O=C(/C=C/c1ccc(N2CCC(c3ccccc3)=N2)cc1)c1ccccc1	0.34
CCCc1nc2oc3c(=O)[nH]cnc3c2c2c1CCCC2	2.05
Cc1c(CCC(=O)O)c(=O)oc2cc3occ(-c4ccc(F)cc4)c3cc12	70.5
CCC1CCCCN1S(=O)(=O)c1ccc(NC(=O)CSc2ncccc2C(=O)O)cc1 (stereo unspecified)	10.7
O=C(O)c1cc(-c2ccc(/C=C3\NC(=O)N(c4ccc(Cl)cc4)C3=O)o2)ccc1Cl	11.8
COc1ccc(/C=C(/C#N)C(=O)Nc2ccc(O)cc2)cc1C(=O)O	16.4

Structure (SMILES)	EC50 [µM]
CN(/N=C/C=C/c1ccccc1)C1=NS(=O)(=O)c2ccccc21	6.02
O=C(Nc1cc(S(=O)(=O)Nc2ccccc2Cl)ccc1O)c1sc2cc(Cl)ccc2c1Cl	3.66
COc1ccc(-c2cc(-c3ccc(O)cc3)nc(N)c2C#N)cc1OC	11.5
COc1ccc(-c2csc(C3=C(O)CN(C(C)C)C3=N)n2)cc1OC	87.3
CCN(CC)c1ccc(/C=C/C(=O)c2ccc(Br)cc2)cc1	11.2
CC(=O)Oc1ccc2c(c1)Oc1cc(OC(C)=O)ccc1C21OC(=O)c2ccccc21	1.51
CCCCNc1nc(=S)[nH]c2cc(OC)c(OC)cc12	10.9
O=C(C[n+]1cccc2ccccc21)c1ccc(NC(=O)c2ccccc2)cc1	10.2
O=C(CSc1ccc2nnc(-c3ccncc3)n2n1)Nc1nccs1	35.1
COC(=O)c1cc(NC(=O)c2cccc(Cl)c2)c(=O)oc1/C=C/Nc1cc(C)cc(C)c1	0.567
COc1cc2c(cc1OC)-c1cc(NC3CCCCCC3)nc(=O)n1CC2	21
COc1cc2nc(=S)n(CCCN3CCOCC3)c(N)c2cc1OC	11
O=C(Cc1ccc(Nc2nc(=S)[nH]c3ccccc23)cc1)NC1CCCCC1	6.65
Cc1cccc(S(=O)(=O)c2c(N)n(/N=C/c3cccnc3)c3nc4ccccc4nc23)c1	3.42
COc1ccc(/C=N/n2c(N)c(S(=O)(=O)c3cccs3)c3nc4ccccc4nc32)cc1OC	0.612
Cn1c(O)c(C2=c3ccccc3=NC2=O)[nH]c1=S	13.4
CCOC(=O)c1cc2c(N)c(C(=O)c3ccc(Br)cc3)sc2[nH]c1=O	0.574
CC(C)(C)NC(=O)CCN(/N=C/c1ccc([N+](=O)[O-])o1)C1=NS(=O)(=O)c2ccccc21	3.39
CC(=O)Nc1ccc(Nc2ccc3c4c(cc(=O)n3C)-c3ccccc3C(=O)c24)cc1	0.151
O=[N+]([O-])c1ccc2c(c1)c(-c1ccccc1)nc1nncn12	3.04
COc1ccc(-c2csc(NC(=S)NC(=O)c3cccs3)n2)cc1OC	1.33
Cc1ccc(Nc2nc(-c3c(C)nc4ncccn34)cs2)cc1	34.8
O=C(CNC(=O)Cc1ccccc1)N=Nc1c(O)n(Cc2ccc3c(c2)OCO3)c2ccccc12	12

Structure (SMILES)	EC50 [µM]
O=C1/C(=C/c2ccc(N3CCOCC3)o2)SC(=Nc2ccccc2)N1CCc1c[nH]c2ccccc12	0.0697
N#Cc1c(Nc2ccccc2)c(/C=N/N=C/c2ccccc2)c[nH]c1=O	4.1
CCOC(=O)c1c2c3c(c(Cl)ccc3[nH]c1=O)C(=O)c1ccccc1-2	0.4
COc1cc(N2CCCC2)c(OC)cc1/C=C(/C#N)c1cccc(F)c1	1.71
O=c1c2ccccc2nc2c3ccccc3c(Cl)nn12	2.04
O=C(CSc1ccc2nnc(-c3ccccn3)n2n1)Nc1nccs1	13
Cc1cc(/C=c2\sc3nc4ccccc4n3c2=O)c(C)n1-c1ccc(C(=O)O)cc1	47.5
Cc1nnc2ccc(-c3cccc(NC(=O)c4ccco4)c3)nn12	7.84
O=C(CSc1ccc2nnc(-c3cccs3)n2n1)N1CCCC1	1.3
COc1ccc(C(=O)N/N=c2\oc3ccccc3cc2C(N)=O)cc1	4.62
CN(/N=C/c1ccc(Br)o1)C1=NS(=O)(=O)c2ccccc21	0.184
NC(=S)N=Nc1c(O)[nH]c2c(Br)cc(Br)cc12	69.1
Nc1c(S(=O)(=O)c2cccs2)c2nc3ccccc3nc2n1/N=C/c1cccc(O)c1	0.355
COC(=O)COc1ccc(/C=N/NC(=O)c2ccc(N(Cc3ccccc3)S(C)(=O)=O)cc2)cc1	4.09
CC(C)(C)c1ccc(C(=O)CC(Sc2ccc(Cl)cc2)C(=O)O)cc1 (stereo unspecified)	3.51
COc1ccc(C(=O)Nc2nc3ccccc3[nH]2)cc1S(=O)(=O)N1CCOCC1	32.7
Oc1ccc(/C=N/NC(=S)N/N=C/c2ccc(O)cc2)cc1	13.4
O=S1(=O)N=C(N(CCO)/N=C/c2ccccc2)c2ccccc21	51.9
CCOc1cc(/C=N/NC(=O)c2cc(-c3cccnc3)nc3ccccc23)ccc1O	8.65
COc1cc(N2CCCC2)c(OC)cc1/C=C(/C#N)c1ccc(Br)cc1	0.0745
COc1cc2c(cc1OC)-c1cc(NCc3ccccn3)nc(=O)n1CC2	1.96
O=C(O)CC/C(=C\c1ccc(N2CCCC2)c([N+](=O)[O-])c1)c1nc2ccccc2s1	37
COCCCNc1nc(=S)[nH]c2cc(OC)c(OC)cc12	15.2

Structure (SMILES)	EC50 [µM]
NS(=O)(=O)c1ccc(CCN2C(=O)/C(=C\c3ccc(Cl)cc3)SC2=S)cc1	6.03
Cn1c(SCCOc2ccccc2F)nc2ccccc2c1=O	4.72
CCN(c1ccc(N=Cc2c(O)n(Cc3ccc(OC)cc3)c(=O)c3ccccc23)cc1)C(C)C	0.249
COCCNC(=S)Nc1cc(OC)c(OC)cc1C#N	4.9
Cc1ccc(NC(=O)Nc2ccnc(-c3cccnc3)n2)cc1	2.07
O=C(CN1CCN(c2ccc(O)cc2)CC1)Nc1cc(S(=O)(=O)N2CCCCC2)ccc1Cl	19.1
COc1cccc2cc(-c3ccnc(=S)[nH]3)oc12	28.8
COc1cccc2c(SCC(=O)N/N=C/c3ccc(O)cc3O)cc(C)nc12	45.4
CCCCn1c(O)c(/C=C/C=C/C=Nc2ccccc2)sc1=S	0.576
Nc1c(C(=O)C2CC2)sc2nc(-c3cccs3)cc(C(F)(F)F)c12	19.3
O=c1c2ccc([N+](=O)[O-])cc2ncn1Cc1ccccc1C(F)(F)F	7.62
O=C(NCc1cccnc1)c1cccn2c(=O)c3sccc3nc12	25.2
COc1cc2c(cc1OC)-c1cc(NC3CCCCCCC3)nc(=O)n1CC2	20.5
CN(C)S(=O)(=O)c1ccc(C(=O)NNc2nc(-c3ccccc3)c3cc(Br)ccc3n2)cc1	4.9
CN(/N=C/c1cccnc1)C1=NS(=O)(=O)c2ccccc21	5.05
CN(/N=C/c1ccco1)C1=NS(=O)(=O)c2ccccc21	2.54
C=CCNc1nc(=S)[nH]c2cc(OC)c(OC)cc12	13.3
NC1=NC(=O)/C(=C/c2cn(CCC(=O)O)nc2-c2ccc(Cl)cc2)S1	29.2
CC(=O)N1C(=O)/C(=C2\SC(=S)N(NC(=O)c3ccc(O)cc3)C2=O)c2ccccc21	4.13
